In patent US10227350B2 (Gilead Sciences, Inc., priority 2016, dated 2019):

Target: PI3Kβ (Homo sapiens (Human), UniProt P42338)
Assay: TR-FRET enzymatic activity assay, PI3Kβ
Type: biochemical
Details: 2× Km ATP, 2 μM PIP2, 30 minutes at 25° C., read-out: IC50-PIP-Beta
Method: The compounds of formula (I) were characterized for their enzymatic activity against the PI3K isoforms. The activities were measured using a time-resolved fluorescence resonance energy transfer (TR-FRET) assay. TR-FRET monitored the formation of 3,4,5-inositol triphosphate molecule that competed with fluorescently labeled PIPS for binding to the GRP-1 pleckstrin homology domain protein.
Class I PI3K isoforms were expressed and purified as heterodimeric recombinant proteins. All assay reagents and buffers for the TR-FRET assay were purchased from Millipore. […] The compounds were added to the assay solution and incubated for 30 minutes at 25° C.

PI3Kβ, sequence (P42338 whole entry): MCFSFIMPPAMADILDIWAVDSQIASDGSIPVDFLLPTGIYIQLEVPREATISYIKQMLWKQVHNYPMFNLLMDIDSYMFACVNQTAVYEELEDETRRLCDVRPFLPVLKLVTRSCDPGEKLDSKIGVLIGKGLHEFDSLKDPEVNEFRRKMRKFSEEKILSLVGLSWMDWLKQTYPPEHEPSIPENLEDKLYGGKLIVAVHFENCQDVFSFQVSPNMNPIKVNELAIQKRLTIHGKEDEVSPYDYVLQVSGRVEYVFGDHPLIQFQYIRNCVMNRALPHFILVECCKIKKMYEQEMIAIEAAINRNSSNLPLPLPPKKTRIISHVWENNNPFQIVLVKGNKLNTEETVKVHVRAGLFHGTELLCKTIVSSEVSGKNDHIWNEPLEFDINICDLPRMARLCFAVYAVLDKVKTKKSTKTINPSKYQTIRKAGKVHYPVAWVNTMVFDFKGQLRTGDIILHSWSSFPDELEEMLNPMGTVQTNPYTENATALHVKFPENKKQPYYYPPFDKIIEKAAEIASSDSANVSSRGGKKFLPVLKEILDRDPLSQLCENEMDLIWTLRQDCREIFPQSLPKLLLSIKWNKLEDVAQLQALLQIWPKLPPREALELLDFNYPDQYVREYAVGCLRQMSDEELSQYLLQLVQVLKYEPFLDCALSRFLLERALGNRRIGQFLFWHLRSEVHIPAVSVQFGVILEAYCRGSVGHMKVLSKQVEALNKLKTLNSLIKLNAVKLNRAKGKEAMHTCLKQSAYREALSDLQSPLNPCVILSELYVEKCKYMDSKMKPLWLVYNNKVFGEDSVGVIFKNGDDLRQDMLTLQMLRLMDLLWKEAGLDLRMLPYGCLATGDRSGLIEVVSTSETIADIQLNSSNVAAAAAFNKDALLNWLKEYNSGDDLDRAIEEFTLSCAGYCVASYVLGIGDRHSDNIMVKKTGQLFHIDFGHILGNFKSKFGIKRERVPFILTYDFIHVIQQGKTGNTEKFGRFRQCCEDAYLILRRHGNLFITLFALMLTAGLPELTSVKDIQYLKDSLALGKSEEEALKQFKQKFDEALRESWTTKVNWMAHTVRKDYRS
PI3Kβ, sequence (P27986 whole entry partner): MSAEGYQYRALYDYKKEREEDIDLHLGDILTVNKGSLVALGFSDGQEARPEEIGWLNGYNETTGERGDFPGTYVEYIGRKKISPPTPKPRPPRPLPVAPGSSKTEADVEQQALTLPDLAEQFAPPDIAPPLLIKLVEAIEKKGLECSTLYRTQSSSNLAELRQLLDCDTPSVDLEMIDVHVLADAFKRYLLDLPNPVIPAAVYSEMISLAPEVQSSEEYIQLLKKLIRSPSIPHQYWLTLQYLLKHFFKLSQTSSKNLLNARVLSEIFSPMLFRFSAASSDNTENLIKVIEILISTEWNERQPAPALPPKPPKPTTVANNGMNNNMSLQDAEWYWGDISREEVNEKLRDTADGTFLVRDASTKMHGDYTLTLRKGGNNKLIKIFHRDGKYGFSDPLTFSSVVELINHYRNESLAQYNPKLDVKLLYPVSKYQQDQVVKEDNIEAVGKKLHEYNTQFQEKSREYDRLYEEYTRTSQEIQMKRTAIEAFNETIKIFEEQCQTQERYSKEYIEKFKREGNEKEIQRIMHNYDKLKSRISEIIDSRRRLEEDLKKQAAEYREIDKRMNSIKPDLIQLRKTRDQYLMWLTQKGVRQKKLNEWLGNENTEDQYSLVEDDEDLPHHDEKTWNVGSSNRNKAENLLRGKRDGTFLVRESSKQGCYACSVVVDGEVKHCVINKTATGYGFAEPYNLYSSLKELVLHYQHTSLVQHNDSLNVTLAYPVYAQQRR

IC50 [nM] | Structure (SMILES)
8 | Cc1nc2c(-c3nnc[nH]3)cc(-c3ccncc3)cc2n1-c1ccnc2cccc(F)c12 [Example 30, 5-fluoro-4-[2-methyl-6-pyridin-4-yl-4-(4H-1,2,4-triazol-3-yl)benzimidazol-1-yl]quinoline]
16 | CCCc1nc2c(-c3nnc(C)[nH]3)cc(-c3ccnc(N)c3)cc2n1-c1ccnc2c(Cl)ccc(F)c12 [Example 65, 4-[3-(8-chloro-5-fluoroquinolin-4-yl)-7-(5-methyl-4H-1,2,4-triazol-3-yl)-2-propylbenzimidazol-5-yl]pyridin-2-amine]
19 | Cc1nc2c(-c3nnc[nH]3)cc(-c3ccnc(N)c3Cl)cc2n1-c1ccnc2c(F)ccc(F)c12 [Example 91, 3-chloro-4-[3-(5,8-difluoroquinolin-4-yl)-2-methyl-7-(4H-1,2,4-triazol-3-yl)benzimidazol-5-yl]pyridin-2-amine]
8 | Cc1cc(-c2cc(-c3nnc[nH]3)c3nc(C)n(-c4ccnc5c(F)ccc(F)c45)c3c2)ccn1 [Example 45, 5,8-difluoro-4-[2-methyl-6-(2-methylpyridin-4-yl)-4-(4H-1,2,4-triazol-3-yl)benzimidazol-1-yl]quinoline]
2600 | CCc1nc2c(-c3nnc[nH]3)cc(-c3ccnc(N)c3F)cc2n1-c1ccnc2c(F)ccc(F)c12 (single isomer, unassigned) [Example 109, 4-[3-(5,8-difluoroquinolin-4-yl)-2-ethyl-7-(4H-1,2,4-triazol-3-yl)benzimidazol-5-yl]-3-fluoropyridin-2-amine]
12 | CCCc1nc2c(-c3nnc[nH]3)cc(-c3ccnc(N)c3F)cc2n1-c1ccnc2c(F)cccc12 [Example 87, 3-fluoro-4-[3-(8-fluoroquinolin-4-yl)-2-propyl-7-(4H-1,2,4-triazol-3-yl)benzimidazol-5-yl]pyridin-2-amine]
7 | Cc1nc2c(-c3nnc[nH]3)cc(-c3ccnc(N)c3F)cc2n1-c1ccnc2c(F)cccc12 [Example 86, 3-fluoro-4-[3-(8-fluoroquinolin-4-yl)-2-methyl-7-(4H-1,2,4-triazol-3-yl)benzimidazol-5-yl]pyridin-2-amine]
2 | Cc1nc2c(-c3nnc[nH]3)cc(-c3ccnc(C#N)c3)cc2n1-c1ccnc2c(Cl)ccc(Cl)c12 [Example 145, 4-(1-(5,8-dichloroquinolin-4-yl)-2-methyl-4-(4H-1,2,4-triazol-3-yl)-1H-benzo[d]imidazol-6-yl)picolinonitrile]
6 | Cc1nc2c(-c3nnc[nH]3)cc(-c3ccncc3)cc2n1-c1ccnc2c(F)ccc(F)c12 (atropisomer, axis not shown) [Example 139, 5,8-difluoro-4-(2-methyl-6-(pyridin-4-yl)-4-(4H-1,2,4-triazol-3-yl)-1H-benzo[d]imidazol-1-yl)quinoline]
360 | Cc1nc2c(-c3nnc[nH]3)cc(-c3ccnc(C#N)c3)cc2n1-c1ccnc2c(F)cccc12 (single isomer, unassigned) [Example 128, 4-(1-(8-fluoroquinolin-4-yl)-2-methyl-4-(4H-1,2,4-triazol-3-yl)-1H-benzo[d]imidazol-6-yl)picolinonitrile]
26 | Cc1cc(-n2c(C)nc3c(-c4nnc[nH]4)cc(-c4ccncc4)cc32)c2ccccc2n1 [Example 34, 2-methyl-4-[2-methyl-6-pyridin-4-yl-4-(4H-1,2,4-triazol-3-yl)benzimidazol-1-yl]quinoline]
170 | Cc1nnc(-c2cc(-c3ccnc(N)c3)cc3c2nc(C)n3-c2ccnc3c(Cl)cccc23)[nH]1 [Example 49, 4-[3-(8-chloroquinolin-4-yl)-2-methyl-7-(5-methyl-4H-1,2,4-triazol-3-yl)benzimidazol-5-yl]pyridin-2-amine]
51 | Cc1nc2c(-c3nnc[nH]3)cc(-c3ccnc(N)c3F)cc2n1-c1c(Cl)cnc2c(F)cccc12 [Example 92, 4-[3-(3-chloro-8-fluoroquinolin-4-yl)-2-methyl-7-(4H-1,2,4-triazol-3-yl)benzimidazol-5-yl]-3-fluoropyridin-2-amine]
5 | Cc1nc2c(-c3nnc[nH]3)cc(-c3ccnc(F)c3)cc2n1-c1ccnc2c(F)ccc(F)c12 [Example 159, 5,8-difluoro-4-(6-(2-fluoropyridin-4-yl)-2-methyl-4-(4H-1,2,4-triazol-3-yl)-1H-benzo[d]imidazol-1-yl)quinoline]
99 | Cc1nc2c(-c3nnc[nH]3)cc(-c3ccncc3F)cc2n1-c1ccnc2c(Cl)cccc12 (single isomer, unassigned) [Example 138, 8-chloro-4-(6-(3-fluoropyridin-4-yl)-2-methyl-4-(4H-1,2,4-triazol-3-yl)-1H-benzo[d]imidazol-1-yl)quinoline]
12 | Cc1nccc(-c2cc(-c3nnc[nH]3)c3nc(C)n(-c4ccnc5c(F)ccc(F)c45)c3c2)n1 [Example 156, 5,8-difluoro-4-(2-methyl-6-(2-methylpyrimidin-4-yl)-4-(4H-1,2,4-triazol-3-yl)-1H-benzo[d]imidazol-1-yl)quinoline]
8 | CC(C)c1nc2c(-c3nnc[nH]3)cc(-c3ccnc(N)c3)cc2n1-c1ccnc2c(Cl)ccc(F)c12 [Example 67, 4-[3-(8-chloro-5-fluoroquinolin-4-yl)-2-propan-2-yl-7-(4H-1,2,4-triazol-3-yl)benzimidazol-5-yl]pyridin-2-amine]

IC50 [nM] | Structure (SMILES)
120 | Cc1cc(-c2cc(-c3nnc[nH]3)c3nc(C)n(-c4ccnc5c(F)ccc(F)c45)c3c2)ccn1 (single isomer, unassigned) [Example 141, 5,8-difluoro-4-(2-methyl-6-(2-methylpyridin-4-yl)-4-(4H-1,2,4-triazol-3-yl)-1H-benzo[d]imidazol-1-yl)quinoline]
3 | Cc1nc2c(-c3nnc[nH]3)cc(-c3ccnc(N)c3F)cc2n1-c1ccnc2c(F)ccc(F)c12 [Example 75, 4-[3-(5,8-difluoroquinolin-4-yl)-2-methyl-7-(4H-1,2,4-triazol-3-yl)benzimidazol-5-yl]-3-fluoropyridin-2-amine]
13 | Cc1nc2c(C(=O)O)cc(-c3ccnc(N)n3)cc2n1-c1ccnc2c(Cl)cccc12 [Example 2]
3 | Cc1nc2c(C(N)=O)cc(-c3ccncc3)cc2n1-c1ccnc2c(Cl)ccc(F)c12 [Example 11, 1-(8-chloro-5-fluoroquinolin-4-yl)-2-methyl-6-pyridin-4-ylbenzimidazole-4-carboxamide]
10 | CCCc1nc2c(-c3nnc[nH]3)cc(-c3ccnc(N)c3)cc2n1-c1ccnc2c(F)ccc(F)c12 [Example 72, 4-[3-(5,8-difluoroquinolin-4-yl)-2-propyl-7-(4H-1,2,4-triazol-3-yl)benzimidazol-5-yl]pyridin-2-amine]
3 | Cc1cnc2c(Cl)cccc2c1-n1c(C)nc2c(-c3nnc[nH]3)cc(-c3ccnc(N)c3F)cc21 [Example 89, 4-[3-(8-chloro-3-methylquinolin-4-yl)-2-methyl-7-(4H-1,2,4-triazol-3-yl)benzimidazol-5-yl]-3-fluoropyridin-2-amine]
1100 | Cc1nc2c(C(N)=O)cc(-c3cc(N)nc(N)n3)cc2n1-c1ccnc2c(Cl)cccc12 [Example 22, 1-(8-chloroquinolin-4-yl)-6-(2,6-diaminopyrimidin-4-yl)-2-methylbenzimidazole-4-carboxamide]
340 | NC(=O)c1cc(-c2ccncc2)cc2c1nc(C1COC1)n2-c1ccnc2c(Cl)cccc12 [Example 12, 1-(8-chloroquinolin-4-yl)-2-(oxetan-3-yl)-6-pyridin-4-ylbenzimidazole-4-carboxamide]
1100 | Cc1c(-c2cc(-c3nnc[nH]3)c3nc(C)n(-c4ccnc5c(F)ccc(F)c45)c3c2)ccnc1F [Example 46, 5,8-difluoro-4-[6-(2-fluoro-3-methylpyridin-4-yl)-2-methyl-4-(4H-1,2,4-triazol-3-yl)benzimidazol-1-yl]quinoline]
22 | Cc1nnc(-c2cc(-c3ccncc3)cc3c2nc(C)n3-c2ccnc3c(Cl)cccc23)[nH]1 [Example 35, 8-chloro-4-[2-methyl-4-(5-methyl-4H-1,2,4-triazol-3-yl)-6-pyridin-4-ylbenzimidazol-1-yl]quinoline]
4 | Cc1nc2c(-c3nnc[nH]3)cc(-c3ccnc(C#N)c3)cc2n1-c1ccnc2c(F)ccc(F)c12 [Example 44, 4-[3-(5,8-difluoroquinolin-4-yl)-2-methyl-7-(4H-1,2,4-triazol-3-yl)benzimidazol-5-yl]pyridine-2-carbonitrile]
31 | Cc1nnc(-c2cc(-c3ccnc(N)c3F)cc3c2nc(C)n3-c2ccnc3c(F)ccc(F)c23)[nH]1 [Example 97, 4-[3-(5,8-difluoroquinolin-4-yl)-2-methyl-7-(5-methyl-4H-1,2,4-triazol-3-yl)benzimidazol-5-yl-]3-fluoropyridin-2-amine]
120 | Nc1nccc(-c2ccc3ncn(-c4cc(N5CCNCC5)nc5ccccc45)c3c2)c1F [Example 163, 3-fluoro-4-(1-(2-(piperazin-1-yl)quinolin-4-yl)-1H-benzo[d]imidazol-6-yl)pyridin-2-amine]
2 | Cc1nc2c(-c3nnc[nH]3)cc(-c3ccnc(N)c3F)cc2n1-c1ccnc2c(Cl)ccc(F)c12 [Example 83, 4-[3-(8-chloro-5-fluoroquinolin-4-yl)-2-methyl-7-(4H-1,2,4-triazol-3-yl)benzimidazol-5-yl]-3-fluoropyridin-2-amine]
17 | Cc1nnc(-c2cc(-c3ccnc(N)c3)cc3c2nc(C)n3-c2ccnc3c(Cl)ccc(F)c23)[nH]1 [Example 50, 4-[3-(8-chloro-5-fluoroquinolin-4-yl)-2-methyl-7-(5-methyl-4H-1,2,4-triazol-3-yl)benzimidazol-5-yl]pyridin-2-amine]
270 | Cc1nc2c(-c3nnc[nH]3)cc(-c3cc(N)ncn3)cc2n1-c1ccnc2c(Cl)cccc12 [Example 59, 6-[3-(8-chloroquinolin-4-yl)-2-methyl-7-(4H-1,2,4-triazol-3-yl)benzimidazol-5-yl]pyrimidin-4-amine]
